PMC8618934, “Synthesis, Crystal Structure, and Biological Evaluation of Novel 5-Hydroxymethylpyrimidines” (Materials, 2021)
In brackets after ≈: the same amount, converted by molar mass.

What was measured:
[1] = Neutral red uptake assay, viability of normal RPTEC cells; format: cell-based; details: human, 72 h treatment, vs control with 1% DMSO = 100%, read-out: Viability of RPTEC cell line
Protocol: For cytotoxicity assays, the following cell lines were used: human renal proximal tubule epithelial cells (RPTEC-MTOX1030), epithelioid cervix carcinoma (HeLa-93021013), colon adenocarcinoma (Caco-2-86010202), hepatocarcinoma (HepaRG-MTOX1010), gastric adenocarcinoma (AGS-89090402), and glioblastoma (A172-88062428) cells were cultured in appropriate media according to the European Collection of Authenticated Cell Cultures (ECACC) recommendation. To all media (except for RPTEC), 2.5 µg mL^−1 amphotericin B, 100 U mL^−1 penicillin, and 100 µg mL^−1 streptomycin were added. In addition, the RPTEC cell line was cultured in media with 30 μg mL^−1 gentamicin and 15 ng mL^−1 amphotericin B. Cell cultures were incubated at 37 °C in a humidified atmosphere with 5% CO2 for at least three passages until performing experiments. All cell lines were grown in monolayers; thus, detachment with 0.25% trypsin solution was required for further assays.
The cells were put in 96-well plates (1 × 10^5 cells per mL) of appropriate culture medium (100 µL per well). Before a general experiment, cells were attached for 24 h and then treated with various concentrations (500, 250, 100, and 10 µM) of pyrimidine derivatives and subsequently grown in 200 µL medium volume. […]. The cells were incubated for 24, 48, and 72 h at 37 °C in a humidified 5% CO2/95% air incubator. The neutral red uptake assay was performed according to Repetto et al.. This method uses the ability of the living cells to accumulate dye in their lysosomes. Briefly, at the end of each incubation time the cells were treated with neutral red solution (40 µg mL^−1) for 2 h at 37 °C. Afterwards, the cells were washed with PBS, and the incorporated dye was solubilized with the extraction solution (50% ethanol, 49% H2O, 1% glacial acetic acid). The plates were gently shaken for 30 min at 37 °C. Finally, the absorbance was measured at 540 nm using a Thermo Scientific™ Multiskan™ GO Microplate Spectrophotometer (Thermo Fisher).
(§1) The viability tests were conducted in quadruple wells (n = 4) for each condition. Values are presented as mean ± standard deviation (SD). Significant differences were calculated using one-way ANOVA, followed by post hoc comparison, and the half-maximal inhibitory concentration (IC50) was obtained by nonlinear regression using GraphPad Prism 9.1 for Windows, GraphPad Software, La Jolla, California, USA, www.graphpad.com. A p-value < 0.05 was considered statistically significant. All results were compared with the control with 1% DMSO, which was considered to be 100%.

[2] = tested on: normal human endothelial cells; parameters: method as in PMID 30284980; details: cited from earlier work
cancer cell lines = tested on: cancer cell lines; parameters: method as in PMID 30284980; details: range depending on the cancer cell line; cited from earlier work
Caco-2 = test: Neutral red uptake assay, Caco-2; format: cell-based; details: Homo sapiens, 72 h incubation
Protocol: (§2) To all media (except for RPTEC), 2.5 µg mL^−1 amphotericin B, 100 U mL^−1 penicillin, and 100 µg mL^−1 streptomycin were added.
(§3) The cells were put in 96-well plates (1 × 10^5 cells per mL) of appropriate culture medium (100 µL per well). Before a general experiment, cells were attached for 24 h and then treated with various concentrations (500, 250, 100, and 10 µM) of pyrimidine derivatives and subsequently grown in 200 µL medium volume. […] The neutral red uptake assay was performed according to Repetto et al.. This method uses the ability of the living cells to accumulate dye in their lysosomes. […] Finally, the absorbance was measured at 540 nm using a Thermo Scientific™ Multiskan™ GO Microplate Spectrophotometer (Thermo Fisher).
as §1, with “significant.” for “significant. All results were compared with the control with 1% DMSO, which was considered to be 100%.”

AGS = test: Neutral red uptake assay, AGS; format: cell-based; details: Homo sapiens, 72 h incubation
Protocol: as §2, §3
as §1, with “www.graphpad.com.” for “www.graphpad.com. A p-value < 0.05 was considered statistically significant. All results were compared with the control with 1% DMSO, which was considered to be 100%.”

A172 = test: Neutral red uptake assay, A172; format: cell-based; details: Homo sapiens, A 172, 72 h incubation
Protocol: as §2, §3
as §1, with “www.graphpad.com.” for “www.graphpad.com. A p-value < 0.05 was considered statistically significant. All results were compared with the control with 1% DMSO, which was considered to be 100%.”

HepaRG = test: Neutral red uptake assay, HepaRG; format: cell-based, human; details: 72 h incubation
Protocol: as §2, §3
as §1, with “www.graphpad.com.” for “www.graphpad.com. A p-value < 0.05 was considered statistically significant. All results were compared with the control with 1% DMSO, which was considered to be 100%.”

HeLa = test: Neutral red uptake assay, HeLa; format: cell-based; details: Homo sapiens, 72 h incubation
Protocol: as §2, §3
as §1, with “www.graphpad.com.” for “www.graphpad.com. A p-value < 0.05 was considered statistically significant. All results were compared with the control with 1% DMSO, which was considered to be 100%.”

[3] = tested on: methicillin-resistant Staphylococcus aureus (MRSA); test: Antimicrobial activity, broth microdilution MIC; format: cell-based; details: tested 256 to 0.5 µg mL^−1, 24 h, '-' not defined, no MIC in tested range
Escherichia coli = test: Antimicrobial activity, broth microdilution MIC; format: cell-based; details: tested 256 to 0.5 µg mL^−1, 24 h, '-' not defined, no MIC in tested range
Klebsiella pneumoniae = test: Antimicrobial activity, broth microdilution MIC; format: cell-based; details: tested 256 to 0.5 µg mL^−1, 24 h, '-' not defined, no MIC in tested range, read-out: MIC K. pneumoniae
Acinetobacter baumannii = test: Antimicrobial activity, broth microdilution MIC; format: cell-based; details: tested 256 to 0.5 µg mL^−1, 24 h, '-' not defined, no MIC in tested range
Enterococcus faecalis = test: Antimicrobial activity, broth microdilution MIC; format: cell-based; details: tested 256 to 0.5 µg mL^−1, 24 h, '-' not defined, no MIC in tested range, read-out: MIC E. faecalis
Candida albicans = test: Antimicrobial activity, broth microdilution MIC; format: cell-based; details: tested 256 to 0.5 µg mL^−1, 24 h, '-' not defined, no MIC in tested range, read-out: MIC C. albicans
Pseudomonas aeruginosa = test: Antimicrobial activity, broth microdilution MIC; format: cell-based; details: tested 256 to 0.5 µg mL^−1, 24 h, '-' not defined, no MIC in tested range, read-out: MIC P. aeruginosa

`Cc1nc(-c2ccccc2)nc(NC2CCCCC2)c1CO` [Compound 3j, [4-(cyclohexylamino)-6-methyl-2-phenylpyrimidin-5-yl]methanol] showed a melting point of 143 °C, a viability at 72 h, 10 µM [1] of 89% and a viability at 72 h, 100 µM [1] of 28%. For the same compound, the viability at 72 h, 250 µM [1] was 70% and the viability at 72 h, 500 µM [1] was 16%.

For `Cc1nc(-c2ccccc2)nc(SCc2ccc(Cl)cc2)c1CO` [5-hydroxymethyl derivative], the “survival of normal human endothelial cells” value [2] is given as 1% and the IC50 (cancer cell lines) is given as 17 to 38 µM.

For `CCNc1nc(-c2ccccc2)nc(C)c1CO` [Compound 3d, [4-(ethylamino)-6-methyl-2-phenylpyrimidin-5-yl]methanol], the IC50 (Caco-2) was > 250 µM, the melting point was 191 °C and the IC50 (AGS) was > 250 µM. The IC50 (A172) was > 250 µM, the IC50 (HepaRG; Homo sapiens, HepaRG, 72 h) was > 250 µM and the IC50 (HeLa) was > 250 µM.

For `C=CCNc1nc(-c2ccccc2)nc(C)c1CO` [Compound 3f, {4-methyl-2-phenyl-6-[(prop-2-en-1-yl)amino]pyrimidin-5-yl}methanol], the IC50 (Caco-2) was > 250 µM, the melting point was 174 to 175 °C and the IC50 (AGS) was > 250 µM. For the same compound, the IC50 (A172) was > 250 µM, the MIC [3] was 256 µg/mL (≈ 1000 µM) and the IC50 (HepaRG; Homo sapiens, HepaRG, 72 h) was > 250 µM. For the same compound, the IC50 (HeLa) was > 250 µM.

In the case of `CNC(C)C1CCC(N)C(OC2C(N)CC(N)C(OC3OCC(C)(O)C(NC)C3O)C2O)O1` (stereo not drawn) [Gentamicin, reference compound], the MIC (Escherichia coli) is reported as 2 µg/mL (≈ 4.19 µM) and the MIC (Klebsiella pneumoniae) is reported as 2 µg/mL (≈ 4.19 µM).

In the case of `Cc1nc(-c2ccccc2)nc(SCc2ccc(Cl)cc2)c1C` [4-[(4-chlorobenzyl)sulfanyl]-5,6-dimethyl-2-phenylpyrimidine], the “survival of normal human endothelial cells” value [2] is given as 58%.

In the case of `Cc1nc(-c2ccccc2)nc(NC(C)C)c1CO` [Compound 3g, {4-methyl-2-phenyl-6-[(propan-2-yl)amino]pyrimidin-5-yl}methanol], the IC50 (Caco-2) is reported as > 250 µM, the melting point is reported as 160 °C and the MIC (Escherichia coli) is reported as 128 µg/mL (≈ 497 µM). For the same compound, the MIC (Acinetobacter baumannii) was 256 µg/mL (≈ 995 µM), the IC50 (AGS) was > 250 µM and the IC50 (A172) was 147 µM. The IC50 (HepaRG; Homo sapiens, HepaRG, 72 h) was 183 µM and the IC50 (HeLa) was 209 µM.

For `CCCNc1nc(-c2ccccc2)nc(C)c1CO` [Compound 3e, [4-methyl-2-phenyl-6-(propylamino)pyrimidin-5-yl]methanol], the IC50 (Caco-2) was > 250 µM, the MIC (Enterococcus faecalis) was 256 µg/mL (≈ 995 µM) and the melting point was 158 to 159 °C. For the same compound, the MIC (Acinetobacter baumannii) was 256 µg/mL (≈ 995 µM), the IC50 (AGS) was > 250 µM and the IC50 (A172) was > 250 µM. The IC50 (HepaRG; Homo sapiens, HepaRG, 72 h) was > 250 µM and the IC50 (HeLa) was > 250 µM.

With `Cc1nc(-c2ccccc2)nc(SCc2ccccc2)c1CO` [Compound 3a, [4-(benzylsulfanyl)-6-methyl-2-phenylpyrimidin-5-yl]methanol] the IC50 (Caco-2) was > 250 µM, the melting point was 144 to 145 °C and the IC50 (AGS) was 209 µM. The IC50 (A172) was > 250 µM, the IC50 (HepaRG; Homo sapiens, HepaRG, 72 h) was 201 µM and the MIC (Candida albicans) was 256 µg/mL (≈ 794 µM). For the same compound, the IC50 (HeLa) was > 250 µM.

In the case of `Cc1nc(-c2ccccc2)nc(NCCO)c1CO` [Compound 3i, 2-{[5-(hydroxymethyl)-6-methyl-2-phenylpyrimidin-4-yl]amino}ethan-1-ol], the IC50 (Caco-2) is reported as > 250 µM, the melting point is reported as 141 °C and the IC50 (AGS) is reported as > 250 µM. The IC50 (A172) was > 250 µM, the IC50 (HepaRG; Homo sapiens, HepaRG, 72 h) was > 250 µM and the IC50 (HeLa) was > 250 µM.

With `Cc1nc(-c2ccccc2)nc(NC(C)(C)C)c1CO` [Compound 3h, [4-(tert-butylamino)-6-methyl-2-phenylpyrimidin-5-yl]methanol] the IC50 (Caco-2) was > 250 µM, the melting point was 173 to 174 °C and the MIC (Acinetobacter baumannii) was 256 µg/mL (≈ 943 µM). The IC50 (AGS) was > 250 µM, the IC50 (A172) was > 250 µM and the IC50 (HepaRG) was 132 µM. The IC50 (HepaRG; Homo sapiens, HepaRG, 72 h) was 132 µM and the IC50 (HeLa) was > 250 µM.

`Cc1ccccc1CSc1nc(-c2ccccc2)nc(C)c1CO` [Compound 3b, (4-methyl-6-{[(2-methylphenyl)methyl]sulfanyl}-2-phenylpyrimidin-5-yl)methanol] gave a melting point of 147 °C, a viability at 72 h, 10 µM [1] of 91% and a viability at 72 h, 100 µM [1] of 44%. The viability at 72 h, 250 µM [1] was 46% and the viability at 72 h, 500 µM [1] was 34%.

In the case of `C[C@H]1COc2c(N3CCN(C)CC3)c(F)cc3c(=O)c(C(=O)O)cn1c23` [Levofloxacin, reference compound], the MIC (Enterococcus faecalis) is reported as 4 µg/mL (≈ 11.1 µM), the MIC (Pseudomonas aeruginosa) is reported as 1 µg/mL (≈ 2.77 µM) and the MIC (Acinetobacter baumannii) is reported as 0.5 µg/mL (≈ 1.38 µM). It also gave an MIC [3] of 1 µg/mL (≈ 2.77 µM).

In the case of `Cc1nc(-c2ccccc2)nc(N)c1CO` [Compound 3c, (4-amino-6-methyl-2-phenylpyrimidin-5-yl)methanol], the IC50 (Caco-2) is reported as > 250 µM, the melting point is reported as 177 to 178 °C and the IC50 (AGS) is reported as > 250 µM. For the same compound, the IC50 (A172) was > 250 µM, the IC50 (HepaRG; Homo sapiens, HepaRG, 72 h) was > 250 µM and the IC50 (HeLa) was > 250 µM.
